Tests used:
HuTu-80 cells [1] = test: Cell cycle assay (PI, flow cytometry); format: cell-based, human; settings: 8 µM
Experimental: To determine the effect of compound 9 on the cell cycle, HuTu-80 cells were seeded in 6-well plates at a density of 5 × 10^5 cells/well for 24 h. After incubation, cells were treated with compound 9 at 8 µM for 6, 18 or 24 h. Thereafter, cells were collected by trypsinization, washed with cold PBS and fixed in 70% ice-cold ethanol for 30 min at 4 °C. Fixed cells were pelleted, stained with PI (1 mg/mL) for 15 min at 37 °C in the dark and analyzed using NovoCyte Flow Cytometer (ACEA Biosciences Inc.). Ten thousand events were recorded for each sample.

HuTu-80 cells [2] = test: Annexin V FITC/PI apoptosis detection; format: cell-based, human; settings: 8 µM; for late apoptotic cells (Annexin V FITC+/PI+): control 1.5%; for early apoptotic cells (Annexin V FITC+/PI-): control 2.9%
Experimental: In the first step of the mechanistic study, the effect of compound 9 on phosphatidylserine (PS) externalization, a marker of the early phase of apoptosis, was analyzed by double staining of compound 9-treated HuTu-80 cells by annexin V FITC and propidium iodide (PI). Live cells are characterized by lipid membrane asymmetry—PS is mainly present in the inner leaflet of the plasma membrane, whereas phosphatidylcholine and sphingomielin are restricted to the outer leaflet. During apoptosis the activity of enzymes involved in membrane lipid scrambling […] and PS is exposed on cell surface. Annexin V is a protein that has a high affinity for PS and its conjugates with fluorophores can be used to estimate the level of PS externalization in vitro. Usage of PI gives in turn an opportunity to identify late apoptotic and necrotic cells displaying increased membrane permeability.
HuTu-80 cells were seeded in 6-well plates at a density of 5 × 10^5 cells per well and incubated for 24 h under standard conditions. Then the medium was replaced with fresh medium containing compound 9 at 8 µM. In order to determine induction of apoptosis, cells were harvested at 6, 18 and 24 h post treatment. Cells were detached with trypsin, washed with cold PBS and then resuspended gently in binding buffer at concentration of 10^6 cells/mL. Thereafter, cells were stained with fluorescein isothiocyanate (FITC)-conjugated Annexin V and PI (Annexin V-FITC Apoptosis Detection Kit, Millipore, Bedford, MA, USA) for 15 min in the dark and subsequently analyzed using NovoCyte Flow Cytometer (ACEA Biosciences Inc., San Diego, CA, USA). For each sample, 10.000 events were acquired.

[3] = test system: panel of cultured cell lines (HuTu-80, HepG2, KB-3-1, A549, RAW264.7, hFF3); test: MTT cytotoxicity, range over the panel of tested cell lines; format: cell-based; settings: 24 h, summary of Table 1 (for 2–10 partly from ref [21])
From the text: According to our previous data and data published by other research groups, chemical transformations of bile acids can greatly improve their antitumor potential. Thus, as the first step of evaluation of the biological activities of our novel DCA derivatives we assessed their effects on tumor cell viability. The cytotoxicity of the compounds was investigated with respect to a panel of cultured cell lines, including human duodenal HuTu-80, hepatocellular HepG2, cervical KB-3-1 and lung A549 carcinomas as well as murine macrophage RAW264.7 and non-transformed human fibroblasts hFF3 by MTT assay.
Cells were seeded in triplicate in 96-well plates at a density of 5 × 10^3 (HuTu-80, HepG2, KB-3-1, hFF3), 10^4 (A549) or 5 × 10^4 (RAW264.7) cells per well. Cells were incubated under standard conditions for 24 h and then they were treated with varying doses of investigated derivatives for subsequent 24 h. Then 10 µL of MTT solution (5 mg/mL) were added to each wells and cells were incubated for an additional 2 h under standard conditions. The crystals of formazan forming within live cells were solubilized with DMSO and the absorbance was measured in a Multiscan RC plate reader (Thermo LabSystems, Helsinki, Finland) at a test and reference wavelengths of 570 nm and 620 nm, respectively. […]

HuTu-80 cells [4] = test: Autophagy detection (MDC staining); format: cell-based, human; settings: 8 µM, 24 h, versus control
From the text: It is known that bile acids can induce cell death independently of apoptosis by activation of autophagy. Autophagy is a regulated lysosome-dependent pathway involved in the degradation of damaged and obsolete intracellular components. During autophagy, these components are isolated by a bilayer membrane resulting in autophagosome formation. Autophagosomes than fuse with lysosomes that leads to enzymatic degradation of their contents. During prolonged and strong stress, cells can autophagocytize up to a half of their cytoplasm that leads to a collapse of cell functions and, as a result, cell death. Monodansylcadaverin (MDC) is an autofluorescent amine that specifically accumulates within autophagic vacuoles and, therefore, can be used as a marker of autophagy.
HuTu-80 cells were seeded in 6-well plates at a density of 5 × 10^5 cells per well and incubated for 24 h under standard conditions. Then the cells were treated by compound 9 at 8 µM for 24 h, collected by trypsinization, washed with PBS, suspended with 50 µM of MDC at 37 °C for 15 min and analyzed using NovoCyte Flow Cytometer (ACEA Biosciences Inc.). In order to evaluate the type of autophagy (cytoprotective or cytodestructive), HuTu-80 cells were seeded in 96-well plate at a density of 5 × 10^3 cells/well for 24 h followed by co-treatment with compound 9 at 8 µM and chloroquine, an autophagy inhibitor, at 50 µM for 24 h. […]

Q: `COC(=O)CC[C@@H](C)[C@H]1CC[C@H]2[C@@H]3CC[C@@H]4CC(O)(CNCCCO)CC[C@]4(C)[C@H]3CC(=O)[C@]12C` (stereo partly drawn) [Compound 9, Methyl 3-hydroxy-3-((3-hydroxypropylamino)methyl)-12-oxo-5β-cholan-24-oate] was tested. Which subG1 cell population (HuTu-80 cells [1]; 6 h) did it give?
A: The subG1 cell population was 7.4%.

Q: What about the subG1 cell population (HuTu-80 cells [1]; 18 h) of the same molecule?
A: Its subG1 cell population is 30.0%.

Q: What about the subG1 cell population (HuTu-80 cells [1]; 24 h) of the same molecule?
A: The subG1 cell population was 41.1%.

Q: What about the “late apoptotic cells (Annexin V FITC+/PI+)” value (HuTu-80 cells [2]; 18 h) of the same molecule?
A: Its value is 4.9%.

Q: And the “early apoptotic cells (Annexin V FITC+/PI-)” value (HuTu-80 cells [2]; 18 h)?
A: The value was 23.5%.

Q: And the “late apoptotic cells (Annexin V FITC+/PI+)” value (HuTu-80 cells [2]; 24 h)?
A: Its value is 10.6%.

Q: What about the “early apoptotic cells (Annexin V FITC+/PI-)” value (HuTu-80 cells [2]; 24 h) of the same molecule?
A: The value was 36.1%.

Q: What about the “necrotic cells (Annexin V FITC-/PI+)” value (HuTu-80 cells [2]; all time points (6, 18, 24 h)) of the same molecule?
A: Its value is ≤ 1.1%.

Q: And the IC50 [3]?
A: Its IC50 is 4 to 33.3 µM.

Q: And the “intensity of MDC-associated fluorescence” value (HuTu-80 cells [4])?
A: Its value is “significantly higher than in control”.

Reference: paper PMC6681416, “Novel Derivatives of Deoxycholic Acid Bearing Linear Aliphatic Diamine and Aminoalcohol Moieties and their Cyclic Analogs at the C3 Position: Synthesis and Evaluation of Their In Vitro Antitumor Potential” (Molecules, 2019)
